Source: patent US20230192646A1, “DIHYDRO-CYCLOPENTA-ISOQUINOLINE DERIVATIVES” (UCB Biopharma SRL, priority 2019, published 2023)

Target: T1, IgE-Tb / sFcεR1α-AF488 (WT soluble IgE receptor FcεR1α) (Homo sapiens, UniProt P01854, N146Q/N252Q, form not given)
T1 construct: fused on or other part: LanthaScreen amine-reactive terbium chelate, chemically conjugated (about 4 Tb per IgE-Fc); a label, not a fusion
Assay: In vitro FRET assay of IgE-Tb binding to sFcεR1α-AF488 (WT), 18 hours incubation (examples 17-35, 48-52 and 63)
Settings: 0.75 nM IgE-Tb, 0.9 nM sFcεR1α-AF488; 18 hours at room temperature; read-out: FRET IC50 range
Method: 86 nmoles of IgE-Fc(N265Q, N371Q) (Young et al., 1995) at 172 μM in 100 mM NaHCO3, pH 9.5 was added to 1 mg of LanthaScreen™ Amine Reactive Tb Chelate (ThermoFisher catalogue number PV3583) and incubated for 16 hours at 20° C. The material was then buffer exchanged into Phosphate Buffered Saline (being, 137 mM NaCl, 2.7 mM KCl, 10 mM Na2HPO4, 1.8 mM K2HPO4, pH 7.4) and the material quantified and the degree of Tb conjugation determined by measuring the absorption at 280 nm and 343 nm.
To a solution of 1.32 μmoles WT FcεR1α, at 377 μM, in 100 mM NaOAc pH 5.5, was slowly added 50 mM sodium periodate (70 μL) in 100 mM NaOAc, pH 5.5, with gentle mixing, to give a final concentration of 1 mM. […]
175 nmoles of protein was added to 1 mg of Alexa Fluor™ 488 hydrazide (Invitrogen) and incubated for 18 hours at 22° C. with gentle mixing. […] The material was quantified, and the degree of Alexa Fluor™ 488 conjugation determined by measuring the absorption at 280 nm and 497 nm. […]
The aim was to measure binding of IgE-Tb to receptor, and the inhibition thereof by compounds, using an in vitro Fluorescence Resonance Energy Transfer (FRET) Assay. […]
Measurement of FRET for each well was carried out by exciting at 337 nm and measuring emission at 490/520 nm using a PHERAstar FSX plate reader (BMG Labtech). FRET ratio was calculated as follows: […]

T1 sequence (P01854 whole entry C105A/N146Q/N252Q, form open, the tested form may be a part): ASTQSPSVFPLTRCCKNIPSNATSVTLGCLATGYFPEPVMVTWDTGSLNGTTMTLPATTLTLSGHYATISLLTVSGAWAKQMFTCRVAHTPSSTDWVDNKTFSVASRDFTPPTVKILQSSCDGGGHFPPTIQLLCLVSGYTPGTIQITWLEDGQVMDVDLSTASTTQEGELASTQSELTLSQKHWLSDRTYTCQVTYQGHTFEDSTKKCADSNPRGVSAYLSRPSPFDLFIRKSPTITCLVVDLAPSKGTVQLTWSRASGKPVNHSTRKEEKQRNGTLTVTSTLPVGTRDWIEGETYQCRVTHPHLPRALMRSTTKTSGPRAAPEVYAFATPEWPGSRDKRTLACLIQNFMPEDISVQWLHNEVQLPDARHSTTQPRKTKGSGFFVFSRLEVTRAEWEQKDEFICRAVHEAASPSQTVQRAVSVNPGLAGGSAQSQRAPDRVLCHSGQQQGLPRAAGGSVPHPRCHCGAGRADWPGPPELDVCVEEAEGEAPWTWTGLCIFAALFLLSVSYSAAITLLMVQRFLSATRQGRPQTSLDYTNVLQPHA

SMILES: COc1ccc(CNC(=O)N[C@H]2C[C@H](Nc3cncc(OC)c3)c3c2cc(S(=O)(=O)NCC(C)C)c2cc(C4CC4)ncc32)cc1 (racemic) [Example 18, 1-[(4-methoxyphenyl)methyl]-3-[trans-(7R,9RS)-3-cyclopropyl-9-[(5-methoxypyridin-3-yl)amino]-5-(2-methylpropylsulfamoyl)-8,9-dihydro-7H-cyclopenta[h]isoquinolin-7-yl]urea]
- IC50: 1 to 10 nM
